Experimental data: paper PMC8766756, “Insights on Cancer Cell Inhibition, Subcellular Activities, and Kinase Profile of Phenylacetamides Pending 1H-Imidazol-5-One Variants” (Frontiers in Pharmacology, 2022)
Values joined by “and” are separate entries in the source; they are usually repeats but may differ in a detail not shown here. Equal entries are not always repeated.

What was measured:
[1] = target: T1, FLT3 (P36888) (Homo sapiens, UniProt P36888); experiment: PamChip tyrosine kinase microarray; assay type: biochemical; details: 0.1 µM, HL60 lysate
T1 construct: purchased PamGene (PamChip PTK array, Upstream Kinase Analysis)
T1 sequence (P36888 27-993): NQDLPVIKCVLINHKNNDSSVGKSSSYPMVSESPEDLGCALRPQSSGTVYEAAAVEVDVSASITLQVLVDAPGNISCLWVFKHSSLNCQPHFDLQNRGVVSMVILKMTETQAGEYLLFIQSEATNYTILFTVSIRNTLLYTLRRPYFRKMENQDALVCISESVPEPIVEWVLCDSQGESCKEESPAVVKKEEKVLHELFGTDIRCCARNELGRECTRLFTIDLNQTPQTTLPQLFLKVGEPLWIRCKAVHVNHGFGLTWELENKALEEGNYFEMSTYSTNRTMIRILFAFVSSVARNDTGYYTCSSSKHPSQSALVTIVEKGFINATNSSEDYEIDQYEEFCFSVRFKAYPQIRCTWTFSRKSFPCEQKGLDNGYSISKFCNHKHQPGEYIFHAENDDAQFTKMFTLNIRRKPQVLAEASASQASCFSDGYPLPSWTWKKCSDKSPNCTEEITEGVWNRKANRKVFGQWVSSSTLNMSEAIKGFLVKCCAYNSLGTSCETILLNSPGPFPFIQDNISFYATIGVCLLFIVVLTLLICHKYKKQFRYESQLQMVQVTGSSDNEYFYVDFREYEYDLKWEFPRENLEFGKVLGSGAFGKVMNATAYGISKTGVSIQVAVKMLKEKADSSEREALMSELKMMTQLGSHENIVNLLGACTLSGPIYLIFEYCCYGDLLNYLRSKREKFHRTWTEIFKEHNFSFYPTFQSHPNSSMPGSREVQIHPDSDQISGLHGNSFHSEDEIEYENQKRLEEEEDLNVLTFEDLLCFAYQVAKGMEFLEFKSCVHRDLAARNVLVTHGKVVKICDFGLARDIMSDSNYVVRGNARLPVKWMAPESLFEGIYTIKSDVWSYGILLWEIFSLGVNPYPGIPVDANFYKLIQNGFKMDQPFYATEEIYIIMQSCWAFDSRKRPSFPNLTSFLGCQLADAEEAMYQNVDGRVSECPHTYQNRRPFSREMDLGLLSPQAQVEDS
How it was run: (§1)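 HL60 (AML) cell lysate was spiked with compound at 0.001, 0.01, 0.1, 1, 10 and 50 µM, or 2% v/v DMSO as control, then profiled in technical replicates on a tyrosine kinase peptide array of 196 phosphosites. Kinase activity was inferred from peptide-set changes using an upstream kinase tool.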

[2] = target: T2, Tyro3/Sky (Q06418) (Homo sapiens, UniProt Q06418); experiment: PamChip tyrosine kinase microarray; assay type: biochemical; details: 0.1 µM, HL60 lysate
T2 construct: purchased PamGene (PamChip PTK array, Upstream Kinase Analysis)
T2 sequence (Q06418 41-890): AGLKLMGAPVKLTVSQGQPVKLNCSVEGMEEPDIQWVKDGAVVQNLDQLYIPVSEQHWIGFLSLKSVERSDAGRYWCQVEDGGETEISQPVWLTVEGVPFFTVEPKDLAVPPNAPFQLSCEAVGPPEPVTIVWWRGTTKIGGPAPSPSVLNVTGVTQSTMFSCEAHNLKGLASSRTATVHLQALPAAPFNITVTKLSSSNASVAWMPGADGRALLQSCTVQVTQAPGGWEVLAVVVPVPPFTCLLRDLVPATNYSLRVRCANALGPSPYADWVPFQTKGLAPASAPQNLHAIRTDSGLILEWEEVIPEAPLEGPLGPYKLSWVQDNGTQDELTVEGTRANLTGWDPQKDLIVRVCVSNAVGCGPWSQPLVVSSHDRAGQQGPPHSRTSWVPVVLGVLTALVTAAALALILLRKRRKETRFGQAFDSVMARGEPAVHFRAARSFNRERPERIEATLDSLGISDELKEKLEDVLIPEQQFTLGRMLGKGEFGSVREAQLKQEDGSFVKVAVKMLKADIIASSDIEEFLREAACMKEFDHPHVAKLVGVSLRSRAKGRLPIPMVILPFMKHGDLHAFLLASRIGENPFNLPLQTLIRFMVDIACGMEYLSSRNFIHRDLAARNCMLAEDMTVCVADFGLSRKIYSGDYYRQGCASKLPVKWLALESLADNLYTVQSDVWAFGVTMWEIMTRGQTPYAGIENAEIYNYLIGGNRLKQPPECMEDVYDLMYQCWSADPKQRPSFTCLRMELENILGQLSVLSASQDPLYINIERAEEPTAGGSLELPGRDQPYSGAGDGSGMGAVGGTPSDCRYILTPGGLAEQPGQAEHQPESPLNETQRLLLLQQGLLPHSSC
How it was run: as §1

For `COc1ccc(/C=C2\N=C(C)N(c3ccc(CC(=O)NCc4ccccc4)cc3)C2=O)cc1` [Compound 4c, (Z)-N-Benzyl-2-(4-(4-(4-methoxybenzylidene)-2-methyl-5-oxo-4,5-dihydro-1H-imidazol-1-yl)phenyl)acetamide], the “Mean Significance Score” value [1] was 2.042, the “Mean Specificity Score” value [1] was 1.043 and the “Mean Final score (Kinase score)” value ([1]; listed as KIM-161) was 3.19 and 3.193. The “Mean Significance Score” value [2] was 2.048, the “Mean Specificity Score” value [2] was 1.177 and the “Mean Final score (Kinase score)” value ([2]; listed as KIM-161) was 3.29 and 3.287.
